Laboratory results reported in patent US10597388B2, “Pyridazinone herbicides” (FMC CORPORATION, priority 2014, dated 2020).

What was measured:
Format in all cases: in vivo
[1] = test system: ryegrass, Italian (Italian ryegrass, Lolium multiflorum); assay: Test A greenhouse herbicide test, pre- and postemergence
How it was run: (§1)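 Visual injury ratings, 0 (no effect) to 100 (complete control), versus untreated plants after roughly 10 d in a greenhouse. Compounds, formulated in a surfactant-containing non-phytotoxic solvent, were sprayed on loam–sand soil after sowing (pre) or on one- to two-leaf plants 2–10 cm tall (post).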

[2] = test system: foxtail, giant (giant foxtail, Setaria faberii); assay: as above
How it was run: as §1

kochia (Kochia scoparia) = assay: as above
How it was run: as §1

[3] = test system: pigweed (Amaranthus retroflexus); assay: as above
How it was run: as §1

[4] = test system: ragweed (common ragweed, Ambrosia elatior); assay: as above
How it was run: as §1

[5] = test system: wheat (Triticum aestivum); assay: as above; conditions: Postemergence
How it was run: as §1

[6] = test system: barnyardgrass (Echinochloa crus-galli); assay: as above
How it was run: as §1

corn (Zea mays) = assay: as above; conditions: Postemergence
How it was run: as §1

rice (Oryza sativa) = assay: Test B flooded paddy test; conditions: 250 g ai/ha, Flood; visual rating on scale of 0 to 100 where 0 is no effect and 100 is complete control; 13 to 15 d after treatment
How it was run: (§2)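 Ratings use a 0-100 visual scale, where 100 is complete control, and compare treated plants with controls after 13 to 15 d of greenhouse growth. Compound went straight into paddy water kept 3 cm over the soil surface, applied to seedlings at the 2-leaf stage.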

[7] = test system: barnyardgrass (Echinochloa crus-galli); assay: Test B flooded paddy test; conditions: 250 g ai/ha, Flood; visual rating on scale of 0 to 100 where 0 is no effect and 100 is complete control; 13 to 15 d after treatment
How it was run: as §2

[8] = test system: ducksalad (Heteranthera limosa); assay: Test B flooded paddy test; conditions: 250 g ai/ha, Flood; visual rating on scale of 0 to 100 where 0 is no effect and 100 is complete control; 13 to 15 d after treatment
How it was run: as §2

[9] = test system: sedge, umbrella (small-flower umbrella sedge, Cyperus difformis); assay: Test B flooded paddy test; conditions: 250 g ai/ha, Flood; visual rating on scale of 0 to 100 where 0 is no effect and 100 is complete control; 13 to 15 d after treatment
How it was run: as §2

[10] = test system: blackgrass (Alopecurus myosuroides); assay: Test A greenhouse herbicide test, postemergence
How it was run: (§3)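 Scores are visual injury ratings from 0 (no effect) to 100 (complete control) versus untreated plants, taken roughly 10 d after treatment in the greenhouse. Treatment was postemergence, on one- to two-leaf plants 2–10 cm high growing in a loam soil/sand mix.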

[11] = test system: galium (catchweed bedstraw, Galium aparine); assay: Test A greenhouse herbicide test, postemergence
How it was run: as §3

[12] = Postemergence, 125 g ai/ha, 0 to 100 scale where 0 is no effect and 100 is complete control
[13] = Postemergence, 500 g ai/ha, 0 to 100 scale, 0 is no effect, 100 is complete control
[14] = Preemergence, 125 g ai/ha, 0 to 100 scale where 0 is no effect and 100 is complete control
[15] = Preemergence, 500 g ai/ha, 0 to 100 scale where 0 is no effect and 100 is complete control
[16] = 125 g ai/ha, 0 to 100 scale where 0 is no effect and 100 is complete control
[17] = 500 g ai/ha, 0 to 100 scale, 0 is no effect, 100 is complete control
[18] = Postemergence, 125 g ai/ha, 0 to 100 scale, 0 no effect, 100 complete control
[19] = Postemergence, 500 g ai/ha, visual rating after approx. 10 d, 0 to 100 scale (0 no effect, 100 complete control)
[20] = Preemergence, 125 g ai/ha, visual injury rating, 0 to 100 scale (0 no effect, 100 complete control), approx. 10 d
[21] = 125 g ai/ha, 0 to 100 scale, 0 no effect, 100 complete control
[22] = 500 g ai/ha, visual rating after approx. 10 d, 0 to 100 scale (0 no effect, 100 complete control)

Cc1sc2ccccc2c1-c1c(OC(=O)OC(C)C)c(Cl)nn(C)c1=O [Compound 94]
40: Barnyardgrass plant response rating [6, 13] | Plant response rating, Barnyardgrass [6, 15]
60: Kochia plant response rating (kochia (Kochia scoparia); [13]) | Ragweed plant response rating [4, 13]
50: Ryegrass, Italian plant response rating [1, 13] | Plant response rating, Ryegrass, Italian [1, 15] | Foxtail, Giant plant response rating [2, 13] | Plant response rating, Foxtail, Giant [2, 15] | Ragweed plant response rating [4, 14]
10: Plant response rating, Ragweed [4, 12]
90: Plant response rating, Pigweed [3, 15] | Galium plant response rating [11, 17]
0: Plant response rating, Wheat [5, 16] | Plant response rating, Barnyardgrass [6, 12] | Barnyardgrass plant response rating [6, 14] | Plant response rating, Corn (corn (Zea mays); [16]) | Corn plant response rating (corn (Zea mays); [17]) | Plant response rating, Rice (rice (Oryza sativa)) | Plant response rating, Barnyardgrass [7] | Plant response rating, Ducksalad [8] | Plant response rating, Sedge, Umbrella [9] | Plant response rating, Blackgrass [10, 16]
30: Plant response rating, Ryegrass, Italian [1, 12] | Plant response rating, Foxtail, Giant [2, 12] | Plant response rating, Kochia (kochia (Kochia scoparia); [12]) | Kochia plant response rating (kochia (Kochia scoparia); [14]) | Plant response rating, Pigweed [3, 12] | Blackgrass plant response rating [10, 17]
20: Ryegrass, Italian plant response rating [1, 14] | Foxtail, Giant plant response rating [2, 14] | Wheat plant response rating [5, 17]
80: Plant response rating, Ragweed [4, 15] | Plant response rating, Galium [11, 16]
70: Plant response rating, Kochia (kochia (Kochia scoparia); [15]) | Pigweed plant response rating [3, 13] | Pigweed plant response rating [3, 14]

Cc1n[nH]c(=O)c(-c2cccc3ccccc23)c1O [Compound 169]
70: Plant response rating, Ryegrass, Italian [1, 18] | Plant response rating, Pigweed [3, 19] | Plant response rating, Galium [11, 22]
40: Plant response rating, Kochia (kochia (Kochia scoparia); [18])
80: Plant response rating, Ryegrass, Italian [1, 20] | Plant response rating, Ragweed [4, 19]
20: Plant response rating, Kochia (kochia (Kochia scoparia); [20]) | Plant response rating, Pigweed [3, 18] | Plant response rating, Ragweed [4, 15] | Plant response rating, Barnyardgrass [6, 19] | Plant response rating, Blackgrass [10, 22]
100: Plant response rating, Ryegrass, Italian [1, 19] | Plant response rating, Ryegrass, Italian [1, 15] | Plant response rating, Kochia (kochia (Kochia scoparia); [19]) | Plant response rating, Pigweed [3, 15]
10: Plant response rating, Blackgrass [10, 21]
0: Plant response rating, Foxtail, Giant [2, 18] | Plant response rating, Foxtail, Giant [2, 20] | Plant response rating, Ragweed [4, 18] | Plant response rating, Ragweed [4, 20] | Plant response rating, Wheat [5, 21] | Plant response rating, Barnyardgrass [6, 18] | Plant response rating, Barnyardgrass [6, 20] | Plant response rating, Corn (corn (Zea mays); [21]) | Plant response rating, Rice (rice (Oryza sativa)) | Plant response rating, Barnyardgrass [7] | Plant response rating, Ducksalad [8] | Plant response rating, Sedge, Umbrella [9]
30: Plant response rating, Foxtail, Giant [2, 19] | Plant response rating, Foxtail, Giant [2, 15] | Plant response rating, Wheat [5, 22] | Plant response rating, Barnyardgrass [6, 15] | Plant response rating, Corn (corn (Zea mays); [22]) | Plant response rating, Galium [11, 21]
50: Plant response rating, Pigweed [3, 20]
90: Plant response rating, Kochia (kochia (Kochia scoparia); [15])

Cc1nn(C)c(=O)c(-c2ccc(Cl)c3ccccc23)c1OS(=O)(=O)N(C)C [Compound 185]
60: Plant response rating, Pigweed [3, 15]
10: Plant response rating, Kochia (kochia (Kochia scoparia); [15]) | Plant response rating, Ragweed [4, 18] | Plant response rating, Barnyardgrass [6, 18]
100: Plant response rating, Kochia (kochia (Kochia scoparia); [19])
40: Plant response rating, Ryegrass, Italian [1, 15] | Plant response rating, Ragweed [4, 15]
0: Plant response rating, Ryegrass, Italian [1, 20] | Plant response rating, Foxtail, Giant [2, 18] | Plant response rating, Foxtail, Giant [2, 20] | Plant response rating, Kochia (kochia (Kochia scoparia); [20]) | Plant response rating, Ragweed [4, 20] | Plant response rating, Wheat [5, 21] | Plant response rating, Wheat [5, 22] | Plant response rating, Barnyardgrass [6, 20] | Plant response rating, Corn (corn (Zea mays); [21]) | Plant response rating, Rice (rice (Oryza sativa)) | Plant response rating, Barnyardgrass [7] | Plant response rating, Ducksalad [8] | Plant response rating, Sedge, Umbrella [9] | Plant response rating, Blackgrass [10, 21]
90: Plant response rating, Pigweed [3, 19] | Plant response rating, Galium [11, 22]
20: Plant response rating, Foxtail, Giant [2, 19] | Plant response rating, Pigweed [3, 20] | Plant response rating, Blackgrass [10, 22]
70: Plant response rating, Ryegrass, Italian [1, 18] | Plant response rating, Kochia (kochia (Kochia scoparia); [18]) | Plant response rating, Galium [11, 21]
30: Plant response rating, Foxtail, Giant [2, 15] | Plant response rating, Barnyardgrass [6, 19] | Plant response rating, Corn (corn (Zea mays); [22])
80: Plant response rating, Ryegrass, Italian [1, 19]
50: Plant response rating, Pigweed [3, 18] | Plant response rating, Ragweed [4, 19] | Plant response rating, Barnyardgrass [6, 15]
